Measurements from patent publication US7820078B2, “Layer configuration with improved stability to sunlight exposure” (Agfa Graphics, N.V., priority 2007, dated 2010).

Key:
[1] = cited from earlier work

| melting point | Structure (SMILES) | pKa [1] |
| --- | --- | --- |
| 101 to 103 °C | Oc1ccc2ccccc2c1O | – |
| – | Sc1nnnn1-c1ccccc1 [1-phenyl-5-mercaptotetrazole] | 2.30 |
| – | c1ccc2cnccc2c1 [isoquinoline] | 5.2 |
| – | CC(C)N [isopropylamine] | 10.63 |
| – | c1cn[nH]c1 [pyrazole] | 2.53 |
| – | Cc1nc2ccccc2[nH]1 [2-methylbenzimidazole] | 6.96 |
